Test results published in the kinase profiling compilation of Christmann-Franck et al. (2016).

Legend:
Test in all cases: radiometric filter-binding kinase assay
YES1 (human) = YES1 (human) (UniProt P07947)
SRPK1 (human) = SRPK1 (human) (UniProt Q96SB4)
[1] = tested on: AKT2 (human), P31751 [S474D]
MAPK1 (human) = MAPK1 (human) (UniProt P28482)
CSNK2A1 (human) = CSNK2A1 (human) (UniProt P68400)
BTK (human) = BTK (human) (UniProt Q06187)
IRAK4 (human) = IRAK4 (human) (UniProt Q9NWZ3)
RIPK2 (human) = RIPK2 (human) (UniProt O43353)
MAP3K1 (human) = MAP3K1 (human) (UniProt Q13233)
MAPKAPK3 (human) = MAPKAPK3 (human) (UniProt Q16644)
NEK6 (human) = NEK6 (human) (UniProt Q9HC98)
FLT1 (human) = FLT1 (human) (UniProt P17948)
MAPK14 (human) = MAPK14 (human) (UniProt Q16539)
JAK2 JH1 JH2 (human) = JAK2 JH1 JH2 (human) (UniProt O60674)
MAPK15 (human) = MAPK15 (human) (UniProt Q8TD08)
MARK4 (human) = MARK4 (human) (UniProt Q96L34)
[2] = target: STK11 CAB39 STRADA (human) (UniProt Q9Y376+Q7RTN6+Q15831)
HIPK1 (human) = HIPK1 (human) (UniProt Q86Z02)
RPS6KA1 KD1 KD2 (human) = RPS6KA1 KD1 KD2 (human) (UniProt Q15418)
MARK3 (human) = MARK3 (human) (UniProt P27448)
NTRK1 (human) = NTRK1 (human) (UniProt P04629)
INSRR (human) = INSRR (human) (UniProt P14616)
PRKCA (human) = PRKCA (human) (UniProt P17252)
MKNK2 (human) = MKNK2 (human) (UniProt Q9HBH9)
MAP3K9 (human) = MAP3K9 (human) (UniProt P80192)
MAPK11 (human) = MAPK11 (human) (UniProt Q15759)
CLK2 (human) = CLK2 (human) (UniProt P49760)
INSR (human) = INSR (human) (UniProt P06213)
DYRK2 (human) = DYRK2 (human) (UniProt Q92630)
RPS6KA5 KD1 KD2 (human) = RPS6KA5 KD1 KD2 (human) (UniProt O75582)
[3] = tested on: RPS6KB1 (human), P23443 [T412E]
CSNK1D (human) = CSNK1D (human) (UniProt P48730)
NEK2 (human) = NEK2 (human) (UniProt P51955)
HIPK2 (human) = HIPK2 (human) (UniProt Q9H2X6)
AURKA (human) = AURKA (human) (UniProt O14965)

Sequence of YES1 (human) (P07947 whole entry, looked up): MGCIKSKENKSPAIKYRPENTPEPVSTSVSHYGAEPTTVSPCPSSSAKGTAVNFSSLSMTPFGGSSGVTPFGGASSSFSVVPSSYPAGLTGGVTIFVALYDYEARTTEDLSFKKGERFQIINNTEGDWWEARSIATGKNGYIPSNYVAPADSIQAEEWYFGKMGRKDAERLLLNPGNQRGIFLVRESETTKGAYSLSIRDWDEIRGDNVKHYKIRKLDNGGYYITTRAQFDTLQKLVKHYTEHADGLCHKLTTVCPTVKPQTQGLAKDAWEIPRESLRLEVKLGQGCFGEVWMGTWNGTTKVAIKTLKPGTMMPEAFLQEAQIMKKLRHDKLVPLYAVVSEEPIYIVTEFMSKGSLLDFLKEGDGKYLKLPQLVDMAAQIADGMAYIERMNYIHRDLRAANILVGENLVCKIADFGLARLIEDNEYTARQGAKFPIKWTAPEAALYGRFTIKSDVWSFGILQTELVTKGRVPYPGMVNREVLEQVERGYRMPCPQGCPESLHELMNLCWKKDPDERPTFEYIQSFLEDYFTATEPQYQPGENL
Sequence of FLT1 (human) (P17948 whole entry, looked up): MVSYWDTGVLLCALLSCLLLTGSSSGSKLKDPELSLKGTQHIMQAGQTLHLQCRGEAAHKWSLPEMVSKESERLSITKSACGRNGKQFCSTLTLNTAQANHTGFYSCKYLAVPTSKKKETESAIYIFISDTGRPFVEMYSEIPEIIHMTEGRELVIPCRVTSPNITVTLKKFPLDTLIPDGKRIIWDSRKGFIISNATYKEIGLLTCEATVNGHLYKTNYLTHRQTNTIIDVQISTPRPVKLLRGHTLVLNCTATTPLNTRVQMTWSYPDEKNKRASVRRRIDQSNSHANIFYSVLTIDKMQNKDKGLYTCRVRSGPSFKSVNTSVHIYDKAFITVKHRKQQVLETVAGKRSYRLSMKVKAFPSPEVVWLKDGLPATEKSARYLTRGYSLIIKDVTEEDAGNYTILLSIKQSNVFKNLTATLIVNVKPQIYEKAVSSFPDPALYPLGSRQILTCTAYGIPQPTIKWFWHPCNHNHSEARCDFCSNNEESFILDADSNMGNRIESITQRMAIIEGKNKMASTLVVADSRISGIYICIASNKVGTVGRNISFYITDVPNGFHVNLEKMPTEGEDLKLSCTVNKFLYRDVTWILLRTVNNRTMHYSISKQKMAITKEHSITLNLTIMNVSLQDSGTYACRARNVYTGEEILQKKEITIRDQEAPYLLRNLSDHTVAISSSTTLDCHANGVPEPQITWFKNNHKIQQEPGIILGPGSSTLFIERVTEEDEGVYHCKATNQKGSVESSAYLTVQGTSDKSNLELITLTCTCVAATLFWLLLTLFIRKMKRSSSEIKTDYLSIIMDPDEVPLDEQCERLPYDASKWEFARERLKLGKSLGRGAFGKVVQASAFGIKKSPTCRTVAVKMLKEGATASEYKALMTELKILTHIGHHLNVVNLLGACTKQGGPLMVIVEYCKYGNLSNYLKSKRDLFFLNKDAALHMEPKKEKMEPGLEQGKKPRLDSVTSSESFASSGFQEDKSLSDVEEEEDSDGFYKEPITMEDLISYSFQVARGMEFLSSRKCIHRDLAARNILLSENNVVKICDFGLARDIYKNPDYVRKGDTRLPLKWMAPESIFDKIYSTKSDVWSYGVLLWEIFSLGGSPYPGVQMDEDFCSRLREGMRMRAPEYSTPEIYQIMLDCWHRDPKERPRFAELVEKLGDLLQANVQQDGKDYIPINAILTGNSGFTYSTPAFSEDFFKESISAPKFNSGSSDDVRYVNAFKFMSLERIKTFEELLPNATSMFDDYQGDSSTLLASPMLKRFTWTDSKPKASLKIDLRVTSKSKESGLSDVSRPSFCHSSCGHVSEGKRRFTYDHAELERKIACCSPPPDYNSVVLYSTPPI
Sequence of MAP3K1 (human) (Q13233 whole entry, looked up): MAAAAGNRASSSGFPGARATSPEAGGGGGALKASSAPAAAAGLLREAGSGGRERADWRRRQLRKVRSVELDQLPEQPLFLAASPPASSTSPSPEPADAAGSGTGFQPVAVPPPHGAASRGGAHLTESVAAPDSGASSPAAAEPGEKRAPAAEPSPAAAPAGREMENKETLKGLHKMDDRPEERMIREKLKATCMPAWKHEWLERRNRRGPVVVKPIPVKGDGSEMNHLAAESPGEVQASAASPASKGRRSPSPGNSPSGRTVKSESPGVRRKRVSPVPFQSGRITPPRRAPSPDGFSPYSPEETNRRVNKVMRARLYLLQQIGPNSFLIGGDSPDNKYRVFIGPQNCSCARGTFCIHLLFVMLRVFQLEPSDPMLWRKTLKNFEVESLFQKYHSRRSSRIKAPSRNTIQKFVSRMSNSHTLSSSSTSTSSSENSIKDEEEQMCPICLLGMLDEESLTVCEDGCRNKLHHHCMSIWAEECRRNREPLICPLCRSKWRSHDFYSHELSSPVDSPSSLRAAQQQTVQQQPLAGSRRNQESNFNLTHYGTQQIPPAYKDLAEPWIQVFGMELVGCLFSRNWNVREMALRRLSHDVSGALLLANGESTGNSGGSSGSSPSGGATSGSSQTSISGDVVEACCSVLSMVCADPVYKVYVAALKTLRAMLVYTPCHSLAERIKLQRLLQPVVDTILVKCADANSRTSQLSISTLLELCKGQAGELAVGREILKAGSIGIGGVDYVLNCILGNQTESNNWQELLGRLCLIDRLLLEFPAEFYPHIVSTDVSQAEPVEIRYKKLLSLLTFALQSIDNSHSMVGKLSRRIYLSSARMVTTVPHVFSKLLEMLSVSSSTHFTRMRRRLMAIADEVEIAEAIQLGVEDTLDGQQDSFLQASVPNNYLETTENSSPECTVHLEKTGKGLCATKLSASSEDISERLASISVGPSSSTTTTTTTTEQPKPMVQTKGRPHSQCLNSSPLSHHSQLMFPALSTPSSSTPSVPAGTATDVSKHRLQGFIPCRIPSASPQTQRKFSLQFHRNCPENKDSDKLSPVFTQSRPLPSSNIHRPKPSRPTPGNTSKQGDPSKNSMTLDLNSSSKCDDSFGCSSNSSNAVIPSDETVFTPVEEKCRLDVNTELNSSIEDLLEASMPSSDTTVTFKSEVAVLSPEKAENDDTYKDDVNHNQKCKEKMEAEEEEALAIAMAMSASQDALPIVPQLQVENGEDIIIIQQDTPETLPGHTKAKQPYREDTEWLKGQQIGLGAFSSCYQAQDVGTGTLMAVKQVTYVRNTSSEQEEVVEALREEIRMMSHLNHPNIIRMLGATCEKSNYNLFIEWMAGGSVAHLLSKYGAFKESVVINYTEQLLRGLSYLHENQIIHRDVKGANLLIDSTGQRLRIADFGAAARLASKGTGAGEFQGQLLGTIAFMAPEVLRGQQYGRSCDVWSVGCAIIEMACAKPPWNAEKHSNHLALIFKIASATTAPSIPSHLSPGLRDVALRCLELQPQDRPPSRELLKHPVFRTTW
Sequence of JAK2 JH1 JH2 (human) (O60674 whole entry, looked up): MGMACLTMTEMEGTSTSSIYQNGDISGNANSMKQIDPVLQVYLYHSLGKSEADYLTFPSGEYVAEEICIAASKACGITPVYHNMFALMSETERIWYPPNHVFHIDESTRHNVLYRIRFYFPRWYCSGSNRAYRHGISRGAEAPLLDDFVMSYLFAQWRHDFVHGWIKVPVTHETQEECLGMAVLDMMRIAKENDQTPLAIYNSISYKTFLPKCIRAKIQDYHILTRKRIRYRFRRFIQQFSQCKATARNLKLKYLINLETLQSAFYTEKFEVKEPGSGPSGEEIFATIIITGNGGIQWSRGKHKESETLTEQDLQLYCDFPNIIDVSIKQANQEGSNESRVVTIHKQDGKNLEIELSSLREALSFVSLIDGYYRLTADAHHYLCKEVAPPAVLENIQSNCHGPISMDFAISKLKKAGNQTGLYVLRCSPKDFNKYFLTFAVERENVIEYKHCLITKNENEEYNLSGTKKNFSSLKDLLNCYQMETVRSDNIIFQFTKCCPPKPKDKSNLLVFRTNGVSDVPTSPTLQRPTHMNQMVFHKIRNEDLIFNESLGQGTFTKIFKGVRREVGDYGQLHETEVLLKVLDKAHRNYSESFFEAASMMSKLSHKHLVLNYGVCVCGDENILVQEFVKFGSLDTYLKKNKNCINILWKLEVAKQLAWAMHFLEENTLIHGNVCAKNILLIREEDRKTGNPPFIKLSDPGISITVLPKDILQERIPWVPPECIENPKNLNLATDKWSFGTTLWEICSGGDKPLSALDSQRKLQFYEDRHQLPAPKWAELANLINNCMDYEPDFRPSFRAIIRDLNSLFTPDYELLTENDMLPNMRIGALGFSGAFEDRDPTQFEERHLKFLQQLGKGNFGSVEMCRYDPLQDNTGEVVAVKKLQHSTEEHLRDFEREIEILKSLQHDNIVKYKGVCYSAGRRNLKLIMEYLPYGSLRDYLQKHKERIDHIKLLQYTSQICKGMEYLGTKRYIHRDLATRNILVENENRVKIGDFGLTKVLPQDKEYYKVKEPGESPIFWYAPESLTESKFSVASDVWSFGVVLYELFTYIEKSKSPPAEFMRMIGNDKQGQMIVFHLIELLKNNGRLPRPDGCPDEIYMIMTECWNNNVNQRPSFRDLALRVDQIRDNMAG
Sequence of NEK2 (human) (P51955 whole entry, looked up): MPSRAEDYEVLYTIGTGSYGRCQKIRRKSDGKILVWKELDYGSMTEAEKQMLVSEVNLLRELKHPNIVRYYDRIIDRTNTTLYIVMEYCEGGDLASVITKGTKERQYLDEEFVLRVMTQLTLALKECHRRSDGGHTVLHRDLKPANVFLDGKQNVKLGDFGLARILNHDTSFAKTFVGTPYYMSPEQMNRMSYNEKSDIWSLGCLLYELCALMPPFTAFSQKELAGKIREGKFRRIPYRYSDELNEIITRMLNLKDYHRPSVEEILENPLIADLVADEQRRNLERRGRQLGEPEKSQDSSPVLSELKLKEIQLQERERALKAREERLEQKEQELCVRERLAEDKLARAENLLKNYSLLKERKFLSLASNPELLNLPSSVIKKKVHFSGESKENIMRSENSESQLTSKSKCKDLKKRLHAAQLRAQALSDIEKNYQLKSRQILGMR

residual activity (YES1 (human); compound 1.0 µM): 91%
residual activity (YES1 (human); compound 10.0 µM): 87%
residual activity (SRPK1 (human); compound 1.0 µM): 99%
residual activity (SRPK1 (human); compound 10.0 µM): 48%
residual activity ([1]; compound 1.0 µM): 77%
residual activity ([1]; compound 10.0 µM): 62%
residual activity (MAPK1 (human); compound 1.0 µM): 96%
residual activity (MAPK1 (human); compound 10.0 µM): 96%
residual activity (CSNK2A1 (human); compound 1.0 µM): 30%
residual activity (CSNK2A1 (human); compound 10.0 µM): 6%
residual activity (BTK (human); compound 1.0 µM): 95%
residual activity (BTK (human); compound 10.0 µM): 71%
residual activity (IRAK4 (human); compound 1.0 µM): 88%
residual activity (IRAK4 (human); compound 10.0 µM): 74%
residual activity (RIPK2 (human); compound 1.0 µM): 94%
residual activity (RIPK2 (human); compound 10.0 µM): 22%
residual activity (MAP3K1 (human); compound 1.0 µM): 99%
residual activity (MAP3K1 (human); compound 10.0 µM): 51%
residual activity (MAPKAPK3 (human); compound 1.0 µM): 82%
residual activity (MAPKAPK3 (human); compound 10.0 µM): 87%
residual activity (NEK6 (human); compound 1.0 µM): 98%
residual activity (NEK6 (human); compound 10.0 µM): 94%
residual activity (FLT1 (human); compound 1.0 µM): 84%
residual activity (FLT1 (human); compound 10.0 µM): 24%
residual activity (MAPK14 (human); compound 1.0 µM): 106%
residual activity (MAPK14 (human); compound 10.0 µM): 98%
residual activity (JAK2 JH1 JH2 (human); compound 1.0 µM): 97%
residual activity (JAK2 JH1 JH2 (human); compound 10.0 µM): 74%
residual activity (MARK4 (human); compound 1.0 µM): 86%
residual activity (MARK4 (human); compound 10.0 µM): 78%
residual activity ([2]; compound 1.0 µM): 80%
residual activity ([2]; compound 10.0 µM): 59%
residual activity (HIPK1 (human); compound 1.0 µM): 104%
residual activity (HIPK1 (human); compound 10.0 µM): 9%
residual activity (RPS6KA1 KD1 KD2 (human); compound 1.0 µM): 88%
residual activity (RPS6KA1 KD1 KD2 (human); compound 10.0 µM): 33%
residual activity (MARK3 (human); compound 1.0 µM): 94%
residual activity (MARK3 (human); compound 10.0 µM): 71%
residual activity (NTRK1 (human); compound 1.0 µM): 83%
residual activity (NTRK1 (human); compound 10.0 µM): 89%
residual activity (INSRR (human); compound 1.0 µM): 79%
residual activity (INSRR (human); compound 10.0 µM): 26%
residual activity (PRKCA (human); compound 1.0 µM): 76%
residual activity (PRKCA (human); compound 10.0 µM): 30%
residual activity (MKNK2 (human); compound 1.0 µM): 94%
residual activity (MKNK2 (human); compound 10.0 µM): 58%
residual activity (MAP3K9 (human); compound 1.0 µM): 95%
residual activity (MAP3K9 (human); compound 10.0 µM): 42%
residual activity (MAPK11 (human); compound 1.0 µM): 97%
residual activity (MAPK11 (human); compound 10.0 µM): 104%
residual activity (CLK2 (human); compound 1.0 µM): 80%
residual activity (CLK2 (human); compound 10.0 µM): 12%
residual activity (INSR (human); compound 1.0 µM): 111%
residual activity (INSR (human); compound 10.0 µM): 108%
residual activity (DYRK2 (human); compound 1.0 µM): 7%
residual activity (DYRK2 (human); compound 10.0 µM): 2%
residual activity (RPS6KA5 KD1 KD2 (human); compound 1.0 µM): 90%
residual activity (RPS6KA5 KD1 KD2 (human); compound 10.0 µM): 20%
residual activity ([3]; compound 1.0 µM): 96%
residual activity ([3]; compound 10.0 µM): 64%
residual activity (CSNK1D (human); compound 1.0 µM): 90%
residual activity (CSNK1D (human); compound 10.0 µM): 59%
residual activity (NEK2 (human); compound 1.0 µM): 94%
residual activity (NEK2 (human); compound 10.0 µM): 80%
residual activity (HIPK2 (human); compound 1.0 µM): 64%
residual activity (HIPK2 (human); compound 10.0 µM): 10%
residual activity (AURKA (human); compound 1.0 µM): 103%
residual activity (AURKA (human); compound 10.0 µM): 78%
Compound: NC(=O)c1ccc(-c2ccc(Oc3cncc4sc(-c5nn[nH]n5)cc34)cc2)cc1
residual activity (MAPK15 (human); compound 1.0 µM): 85%
residual activity (MAPK15 (human); compound 10.0 µM): 2%
